Conditions: Liquid

CC(O)CO (centres undefined) [1,2-propanediol]
Conditions | mass density [kg/m3] | viscosity [mPa·s]
292.1 K, 101.33 kPa, Capillary tube (Ostwald / Ubbelohde) method | – | 60.61
293.1 K, 101.33 kPa, Capillary tube (Ostwald / Ubbelohde) method | – | 58.09
293.15 K, 101.33 kPa, Pycnometric method | 1035.5 | –
298.15 K, 98 kPa, Buoyancy - hydrostatic balance | 1032.56 | –
298.15 K, 98 kPa, Falling or rolling sphere viscometry | – | 43.69
298.15 K, 101.33 kPa, Capillary tube (Ostwald / Ubbelohde) method | – | 43.69
298.15 K, 101.33 kPa, Pycnometric method | 1032.56 | –
298.15 K, 49030 kPa, Buoyancy - hydrostatic balance | 1055.29 | –
298.15 K, 49030 kPa, Falling or rolling sphere viscometry | – | 64.02
298.15 K, 98060 kPa, Buoyancy - hydrostatic balance | 1072.94 | –
298.15 K, 98060 kPa, Falling or rolling sphere viscometry | – | 94.28
298.15 K, 147100 kPa, Buoyancy - hydrostatic balance | 1088.48 | –
298.15 K, 147100 kPa, Falling or rolling sphere viscometry | – | 134.1
298.15 K, 196130 kPa, Buoyancy - hydrostatic balance | 1104.32 | –
298.15 K, 196130 kPa, Falling or rolling sphere viscometry | – | 187.2
298.15 K, 245160 kPa, Buoyancy - hydrostatic balance | 1115.28 | –
298.15 K, 245160 kPa, Falling or rolling sphere viscometry | – | 260.7
303.15 K, 98 kPa, Buoyancy - hydrostatic balance | 1028.87 | –
303.15 K, 98 kPa, Falling or rolling sphere viscometry | – | 32.35
303.15 K, 49030 kPa, Buoyancy - hydrostatic balance | 1052.03 | –
303.15 K, 49030 kPa, Falling or rolling sphere viscometry | – | 48.25
303.15 K, 98060 kPa, Buoyancy - hydrostatic balance | 1070.79 | –
303.15 K, 98060 kPa, Falling or rolling sphere viscometry | – | 69.46
303.15 K, 147100 kPa, Buoyancy - hydrostatic balance | 1086.25 | –
303.15 K, 147100 kPa, Falling or rolling sphere viscometry | – | 97.33
303.15 K, 196130 kPa, Buoyancy - hydrostatic balance | 1101.4 | –
303.15 K, 196130 kPa, Falling or rolling sphere viscometry | – | 134.7
303.15 K, 245160 kPa, Buoyancy - hydrostatic balance | 1112.65 | –
303.15 K, 245160 kPa, Falling or rolling sphere viscometry | – | 183.3
303.4 K, 101.33 kPa, Capillary tube (Ostwald / Ubbelohde) method | – | 31.54
312.98 K, 98 kPa, Buoyancy - hydrostatic balance | 1022.16 | –
312.98 K, 98 kPa, Falling or rolling sphere viscometry | – | 19.45
313 K, 49030 kPa, Buoyancy - hydrostatic balance | 1046.22 | –
313 K, 49030 kPa, Falling or rolling sphere viscometry | – | 28.34
313.03 K, 147100 kPa, Buoyancy - hydrostatic balance | 1081.67 | –
313.03 K, 147100 kPa, Falling or rolling sphere viscometry | – | 54.68
313.03 K, 245160 kPa, Buoyancy - hydrostatic balance | 1107.51 | –
313.03 K, 245160 kPa, Falling or rolling sphere viscometry | – | 98.04
313.04 K, 196130 kPa, Buoyancy - hydrostatic balance | 1095.69 | –
313.04 K, 196130 kPa, Falling or rolling sphere viscometry | – | 73.88
313.05 K, 98060 kPa, Buoyancy - hydrostatic balance | 1065.24 | –
313.05 K, 98060 kPa, Falling or rolling sphere viscometry | – | 39.87
313.15 K, 101.33 kPa, Pycnometric method | 1021.9 | –
313.9 K, 101.33 kPa, Capillary tube (Ostwald / Ubbelohde) method | – | 19.37
316 K, 101.33 kPa, Capillary tube (Ostwald / Ubbelohde) method | – | 17.04
332.1 K, 101.33 kPa, Capillary tube (Ostwald / Ubbelohde) method | – | 8.76
333.15 K, 101.33 kPa, Pycnometric method | 1006.3 | –
335.76 K, 98060 kPa, Buoyancy - hydrostatic balance | 1050.34 | –
335.76 K, 98060 kPa, Falling or rolling sphere viscometry | – | 14.23
335.78 K, 98 kPa, Buoyancy - hydrostatic balance | 1005.31 | –
335.78 K, 98 kPa, Falling or rolling sphere viscometry | – | 7.524
335.78 K, 147100 kPa, Buoyancy - hydrostatic balance | 1068.19 | –
335.78 K, 147100 kPa, Falling or rolling sphere viscometry | – | 18.86
335.8 K, 49030 kPa, Buoyancy - hydrostatic balance | 1029.3 | –
335.8 K, 49030 kPa, Falling or rolling sphere viscometry | – | 10.59
335.8 K, 196130 kPa, Buoyancy - hydrostatic balance | 1082.92 | –
335.8 K, 196130 kPa, Falling or rolling sphere viscometry | – | 24.61
336.01 K, 245160 kPa, Buoyancy - hydrostatic balance | 1095.8 | –
336.01 K, 245160 kPa, Falling or rolling sphere viscometry | – | 30.53
